The term Ki denotes a measure of affinity in units of concentration, obtained from inhibition or displacement.

The target in this assay is PI3Kδ (Homo sapiens (Human), UniProt O00329). The class given is biochemical. To be noted: PI3Kδ Alphascreen assay. (Bead proximity is the source of the signal in Alpha formats.)
PI3Kδ, sequence (O00329 whole entry): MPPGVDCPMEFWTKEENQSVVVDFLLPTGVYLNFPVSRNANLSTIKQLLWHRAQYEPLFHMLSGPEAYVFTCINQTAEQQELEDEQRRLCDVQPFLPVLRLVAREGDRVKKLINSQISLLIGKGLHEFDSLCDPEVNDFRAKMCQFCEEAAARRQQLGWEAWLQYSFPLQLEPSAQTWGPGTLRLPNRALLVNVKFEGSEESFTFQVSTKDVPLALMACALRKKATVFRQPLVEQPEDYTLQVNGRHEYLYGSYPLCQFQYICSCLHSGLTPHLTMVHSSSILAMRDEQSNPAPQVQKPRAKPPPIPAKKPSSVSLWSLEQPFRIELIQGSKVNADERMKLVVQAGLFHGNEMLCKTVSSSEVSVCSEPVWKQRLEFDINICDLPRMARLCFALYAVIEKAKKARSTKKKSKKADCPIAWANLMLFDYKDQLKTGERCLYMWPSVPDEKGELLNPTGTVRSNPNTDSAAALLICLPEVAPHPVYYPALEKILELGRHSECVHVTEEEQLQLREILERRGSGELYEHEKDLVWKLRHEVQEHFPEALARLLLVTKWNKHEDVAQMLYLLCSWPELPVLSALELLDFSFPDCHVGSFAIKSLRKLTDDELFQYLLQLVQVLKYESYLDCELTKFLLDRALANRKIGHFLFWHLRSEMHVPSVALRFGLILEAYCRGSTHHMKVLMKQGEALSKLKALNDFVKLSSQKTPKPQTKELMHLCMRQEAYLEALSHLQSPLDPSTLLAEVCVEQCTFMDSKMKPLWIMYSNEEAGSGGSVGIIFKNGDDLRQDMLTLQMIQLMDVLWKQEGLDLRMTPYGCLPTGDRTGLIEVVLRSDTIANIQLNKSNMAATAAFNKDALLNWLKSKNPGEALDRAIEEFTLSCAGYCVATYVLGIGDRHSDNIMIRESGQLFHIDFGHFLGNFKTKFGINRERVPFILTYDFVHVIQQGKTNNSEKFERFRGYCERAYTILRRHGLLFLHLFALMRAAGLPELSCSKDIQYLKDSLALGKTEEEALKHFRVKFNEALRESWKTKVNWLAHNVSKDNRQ
PI3Kδ, sequence (P27986 whole entry partner): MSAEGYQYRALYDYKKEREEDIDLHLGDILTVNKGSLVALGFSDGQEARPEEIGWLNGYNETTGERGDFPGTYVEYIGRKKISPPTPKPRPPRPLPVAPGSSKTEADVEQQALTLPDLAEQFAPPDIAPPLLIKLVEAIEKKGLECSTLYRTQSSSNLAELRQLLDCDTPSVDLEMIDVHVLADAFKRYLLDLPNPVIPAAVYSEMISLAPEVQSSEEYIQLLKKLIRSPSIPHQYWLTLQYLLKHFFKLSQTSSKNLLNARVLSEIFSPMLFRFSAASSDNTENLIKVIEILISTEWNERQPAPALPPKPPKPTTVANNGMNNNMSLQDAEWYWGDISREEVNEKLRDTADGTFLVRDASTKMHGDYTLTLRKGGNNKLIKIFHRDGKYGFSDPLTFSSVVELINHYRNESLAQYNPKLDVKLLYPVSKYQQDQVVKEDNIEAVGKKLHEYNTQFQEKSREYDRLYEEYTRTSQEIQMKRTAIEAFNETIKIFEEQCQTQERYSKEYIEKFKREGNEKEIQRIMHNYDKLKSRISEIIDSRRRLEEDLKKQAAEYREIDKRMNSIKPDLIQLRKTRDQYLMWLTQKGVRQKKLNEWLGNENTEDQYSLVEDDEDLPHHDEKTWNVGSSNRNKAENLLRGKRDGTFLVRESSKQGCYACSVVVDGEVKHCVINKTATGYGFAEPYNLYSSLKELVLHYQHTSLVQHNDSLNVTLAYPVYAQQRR
Method: A PI3K Alphascreen® assay (PerkinElmer, Waltham, Mass.) was used to measure the activity of a panel of four phosphoinositide 3-kinases: PI3Kα, PI3Kβ, PI3Kγ, and PI3Kδ. Enzyme reaction buffer was prepared using sterile water (Baxter, Deerfield, Ill.) and 50 mM Tris HCl pH 7, 14 mM MgCl2, 2 mM sodium cholate, and 100 mM NaCl. 2 mM DTT was added fresh the day of the experiment. The Alphascreen buffer was made using sterile water and 10 mM Tris HCl pH 7.5, 150 mM NaCl, 0.10% Tween 20, and 30 mM EDTA. 1 mM DTT was added fresh the day of the experiment. Compound source plates used for this assay were 384-well Greiner clear polypropylene plates containing test compounds at 5 mM and diluted 1:2 over 22 concentrations. Columns 23 and 24 contained only DMSO as these wells comprised the positive and negative controls, respectively. Source plates were replicated by transferring 0.5 uL per well into 384-well Optiplates (PerkinElmer, Waltham, Mass.).
Each PI3K isoform was diluted in enzyme reaction buffer to 2× working stocks. PI3Kα was diluted to 1.6 nM, PI3Kβ was diluted to 0.8 nM, PI3Kγ was diluted to 15 nM, and PI3Kδ was diluted to 1.6 nM. PI(4,5)P2 (Echelon Biosciences, Salt Lake City, Utah) was diluted to 10 μM and ATP was diluted to 20 μM. This 2× stock was used in the assays for PI3Kα and PI3Kβ. For assay of PI3Kγ and PI3Kδ, PI(4,5)P2 was diluted to 10 μM and ATP was diluted to 8 μM to prepare a similar 2× working stock. Alphascreen reaction solutions were made using beads from the anti-GST Alphascreen kit (PerkinElmer, Waltham, Mass.). Two 4× working stocks of the Alphascreen reagents were made in Alphascreen reaction buffer. In one stock, biotinylated-IP4 (Echelon Biosciences, Salt Lake City, Utah) was diluted to 40 nM and streptavadin-donor beads were diluted to 80 μg/mL. In the second stock, PIP3-binding protein (Echelon Biosciences, Salt Lake City, Utah) was diluted to 40 nM and anti-GST-acceptor beads were diluted to 80 μg/mL.
Using a 384-well Multidrop (Titertek, Huntsville, Ala.), 10 μL/well of 2× enzyme stock was added to columns 1-24 of the assay plates for each isoform. 10 μL/well of the appropriate substrate 2× stock (containing 20 μM ATP for the PI3Kα and β assays and containing 8 μM ATP for the PI3Kγ and δ assays) was then added to Columns 1-24 of all plates. Plates were then incubated at room temperature for 20 minutes. In the dark, 10 μL/well of the donor bead solution was added to columns 1-24 of the plates to quench the enzyme reaction. The plates were incubated at room temperature for 30 minutes. Still in the dark, 10 μL/well of the acceptor bead solution was added to columns 1-24 of the plates. The plates were then incubated in the dark for 1.5 hours. The plates were read on an Envision multimode Plate Reader (PerkinElmer, Waltham, Mass.) using a 680 nm excitation filter and a 520-620 nm emission filter.
`Cc1c(-c2ccccc2)nc2ccccc2c1N1CC(C)(C)c2ccc(N3CCOCC3)cc21` [4-(3,3-dimethyl-6-(4-morpholinyl)-2,3-dihydro-1H-indol-1-yl)-3-methyl-2-phenylquinoline]: the Ki turned out to be 85.4 nM.
The result for `Cc1cnc2ccccc2c1N1CC(C)(C)c2ccc(N3CCOCC3)cc21` [4-(3,3-dimethyl-6-(4-morpholinyl)-2,3-dihydro-1H-indol-1-yl)-3-methylquinoline] reads 654 nM; that for `Cc1c(N2CCCCC2)nc2cc(F)cc(F)c2c1N1CC(C)(C)c2ccc(N3CCOCC3)cc21` [4-(3,3-dimethyl-6-(4-morpholinyl)-2,3-dihydro-1H-indol-1-yl)-5,7-difluoro-3-methyl-2-(1-piperidinyl)quinoline], 73.7 nM; that for `Cc1c(-c2ccccn2)nc2cccc(F)c2c1N1CC(C)(C)c2ccc(N3CCOCC3)cc21` [4-(3,3-dimethyl-6-(4-morpholinyl)-2,3-dihydro-1H-indol-1-yl)-5-fluoro-3-methyl-2-(2-pyridinyl)quinoline], 156 nM.
The result for `COc1cc(OC)c2nc(C)c(C)c(N3CC(C)(C)c4ccc(N5CCOCC5)cc43)c2c1` [4-(3,3-dimethyl-6-(4-morpholinyl)-2,3-dihydro-1H-indol-1-yl)-6,8-dimethoxy-2,3-dimethylquinoline] reads 3970 nM; that for `Cc1c(-c2ccccc2F)nc2cc(F)ccc2c1N1CC(C)(C)c2ccc(N3CCOCC3)cc21` [4-(3,3-dimethyl-6-(4-morpholinyl)-2,3-dihydro-1H-indol-1-yl)-7-fluoro-2-(2-fluorophenyl)-3-methylquinoline], 197 nM.
In the case of `Cc1c(-c2ccccc2S(C)(=O)=O)nc2cc(F)ccc2c1N1CC(C)(C)c2ccc(N3CCOCC3)cc21` [4-(3,3-dimethyl-6-(4-morpholinyl)-2,3-dihydro-1H-indol-1-yl)-7-fluoro-3-methyl-2-(2-(methylsulfonyl)phenyl)quinoline] it was 4.43 nM; in that of `COc1cc2nc(C)c(C)c(N3CC(C)(C)c4ccc(N5CCOCC5)cc43)c2cc1C` [4-(3,3-dimethyl-6-(4-morpholinyl)-2,3-dihydro-1H-indol-1-yl)-7-methoxy-2,3,6-trimethylquinoline], 622 nM.
Turning to `Cc1c(-c2ccccn2)nc2c(F)cccc2c1N1CC(C)(C)c2ccc(N3CCOCC3)cc21` [4-(3,3-dimethyl-6-(4-morpholinyl)-2,3-dihydro-1H-indol-1-yl)-8-fluoro-3-methyl-2-(2-pyridinyl)quinoline], the inhibition constant Ki came out at 93.7 nM.
In the case of `Cc1cc(C)cc(-c2nc3cc(F)ccc3c(N3CC(C)(C)c4ncc(N5CCOCC5)cc43)c2C)c1` [4-(3,3-dimethyl-6-(4-morpholinyl)-2,3-dihydro-1H-pyrrolo[3,2-b]pyridin-1-yl)-2-(3,5-dimethylphenyl)-7-fluoro-3-methylquinoline] it was 15.6 nM; in that of `Cc1c(-c2cccc(F)c2)nc2ncccc2c1N1CC(C)(C)c2ncc(N3CCOCC3)cc21` [4-(3,3-dimethyl-6-(4-morpholinyl)-2,3-dihydro-1H-pyrrolo[3,2-b]pyridin-1-yl)-2-(3-fluorophenyl)-3-methyl-1,8-naphthyridine], 5.38 nM; in that of `Cc1c(-c2cncc(F)c2)nc2cnccc2c1N1CC(C)(C)c2ncc(N3CCOCC3)cc21` [4-(3,3-dimethyl-6-(4-morpholinyl)-2,3-dihydro-1H-pyrrolo[3,2-b]pyridin-1-yl)-2-(5-fluoro-3-pyridinyl)-3-methyl-1,7-naphthyridine], 7.75 nM.
The result for `Cc1ccnc(-c2nc3cnccc3c(N3CC(C)(C)c4ncc(N5CCOCC5)cc43)c2C)c1` [4-(3,3-dimethyl-6-(4-morpholinyl)-2,3-dihydro-1H-pyrrolo[3,2-b]pyridin-1-yl)-3-methyl-2-(4-methyl-2-pyridinyl)-1,7-naphthyridine] reads 5.37 nM; that for `Cc1c(-c2cccc3[nH]ccc23)nc2cc(F)cc(F)c2c1N1CC(C)(C)c2ncc(N3CCOCC3)cc21` [4-(3,3-dimethyl-6-(4-morpholinyl)-2,3-dihydro-1H-pyrrolo[3,2-b]pyridin-1-yl)-5,7-difluoro-2-(1H-indol-4-yl)-3-methylquinoline], 2.77 nM.
The result for `Cc1c(Cc2cccc(F)c2)nc2cc(F)cc(F)c2c1N1CC(C)(C)c2ncc(N3CCOCC3)cc21` [4-(3,3-dimethyl-6-(4-morpholinyl)-2,3-dihydro-1H-pyrrolo[3,2-b]pyridin-1-yl)-5,7-difluoro-2-(3-fluorobenzyl)-3-methylquinoline] reads 2.87 nM; that for `Cc1c(-c2cncc(F)c2)nc2cc(F)cc(F)c2c1N1CC(C)(C)c2ncc(N3CCOCC3)cc21` [4-(3,3-dimethyl-6-(4-morpholinyl)-2,3-dihydro-1H-pyrrolo[3,2-b]pyridin-1-yl)-5,7-difluoro-2-(5-fluoro-3-pyridinyl)-3-methylquinoline], 5.21 nM.
On to `Cc1c(-c2ccc3c(ccn3C)c2)nc2cc(F)cc(F)c2c1N1CC(C)(C)c2ncc(N3CCOCC3)cc21` [4-(3,3-dimethyl-6-(4-morpholinyl)-2,3-dihydro-1H-pyrrolo[3,2-b]pyridin-1-yl)-5,7-difluoro-3-methyl-2-(1-methyl-1H-indol-5-yl)quinoline], for which the affinity corresponds to a Ki of 195 nM.
In the case of `Cc1c(-c2cccc3ccccc23)nc2cc(F)cc(F)c2c1N1CC(C)(C)c2ncc(N3CCOCC3)cc21` [4-(3,3-dimethyl-6-(4-morpholinyl)-2,3-dihydro-1H-pyrrolo[3,2-b]pyridin-1-yl)-5,7-difluoro-3-methyl-2-(1-naphthalenyl)quinoline] it was 230 nM.
In the case of `Cc1c(C2(c3ccccc3)CC2)nc2cc(F)cc(F)c2c1N1CC(C)(C)c2ncc(N3CCOCC3)cc21` [4-(3,3-dimethyl-6-(4-morpholinyl)-2,3-dihydro-1H-pyrrolo[3,2-b]pyridin-1-yl)-5,7-difluoro-3-methyl-2-(1-phenylcyclopropyl)quinoline] it was 21.8 nM.
As to `C=C(c1ccccc1)c1nc2cc(F)cc(F)c2c(N2CC(C)(C)c3ncc(N4CCOCC4)cc32)c1C` [4-(3,3-dimethyl-6-(4-morpholinyl)-2,3-dihydro-1H-pyrrolo[3,2-b]pyridin-1-yl)-5,7-difluoro-3-methyl-2-(1-phenylethenyl)quinoline], affinity was put at a Ki of 2.9 nM.
The result for `Cc1c(CCc2ccccc2)nc2cc(F)cc(F)c2c1N1CC(C)(C)c2ncc(N3CCOCC3)cc21` [4-(3,3-dimethyl-6-(4-morpholinyl)-2,3-dihydro-1H-pyrrolo[3,2-b]pyridin-1-yl)-5,7-difluoro-3-methyl-2-(2-phenylethyl)quinoline] reads 8.12 nM; that for `Cc1c(Cc2cccc(C(F)(F)F)c2)nc2cc(F)cc(F)c2c1N1CC(C)(C)c2ncc(N3CCOCC3)cc21` [4-(3,3-dimethyl-6-(4-morpholinyl)-2,3-dihydro-1H-pyrrolo[3,2-b]pyridin-1-yl)-5,7-difluoro-3-methyl-2-(3-(trifluoromethyl)benzyl)quinoline], 17.3 nM.
In the case of `Cc1ccnc(-c2nc3cc(F)cc(F)c3c(N3CC(C)(C)c4ncc(N5CCOCC5)cc43)c2C)c1` [4-(3,3-dimethyl-6-(4-morpholinyl)-2,3-dihydro-1H-pyrrolo[3,2-b]pyridin-1-yl)-5,7-difluoro-3-methyl-2-(4-methyl-2-pyridinyl)quinoline] it was 18.4 nM.
The result for `Cc1c(-c2cncc(S(C)(=O)=O)c2)nc2cc(F)cc(F)c2c1N1CC(C)(C)c2ncc(N3CCOCC3)cc21` [4-(3,3-dimethyl-6-(4-morpholinyl)-2,3-dihydro-1H-pyrrolo[3,2-b]pyridin-1-yl)-5,7-difluoro-3-methyl-2-(5-(methylsulfonyl)-3-pyridinyl)quinoline] reads 16.7 nM.
`Cc1cncc(-c2nc3cc(F)cc(F)c3c(N3CC(C)(C)c4ncc(N5CCOCC5)cc43)c2C)c1` [4-(3,3-dimethyl-6-(4-morpholinyl)-2,3-dihydro-1H-pyrrolo[3,2-b]pyridin-1-yl)-5,7-difluoro-3-methyl-2-(5-methyl-3-pyridinyl)quinoline] came in with a Ki of 3 nM.
In the case of `Cc1c(/C=C/c2ccccc2)nc2cc(F)cc(F)c2c1N1CC(C)(C)c2ncc(N3CCOCC3)cc21` [4-(3,3-dimethyl-6-(4-morpholinyl)-2,3-dihydro-1H-pyrrolo[3,2-b]pyridin-1-yl)-5,7-difluoro-3-methyl-2-((E)-2-phenylethenyl)quinoline] it was 88.3 nM; in that of `Cc1c(-c2ccccn2)nc2c(C)ccc(F)c2c1N1CC(C)(C)c2ncc(N3CCOCC3)cc21` [4-(3,3-dimethyl-6-(4-morpholinyl)-2,3-dihydro-1H-pyrrolo[3,2-b]pyridin-1-yl)-5-fluoro-3,8-dimethyl-2-(2-pyridinyl)quinoline], 4.07 nM.
The result for `Cc1c(-c2ccccn2)nc2cccc(F)c2c1N1CC(C)(C)c2ncc(N3CCOCC3)cc21` [4-(3,3-dimethyl-6-(4-morpholinyl)-2,3-dihydro-1H-pyrrolo[3,2-b]pyridin-1-yl)-5-fluoro-3-methyl-2-(2-pyridinyl)quinoline] reads 3.33 nM.
The result for `CC1(C)CN(c2c(C#N)c(-c3ccccn3)nc3cc(F)ccc23)c2cc(N3CCOCC3)cnc21` [4-(3,3-dimethyl-6-(4-morpholinyl)-2,3-dihydro-1H-pyrrolo[3,2-b]pyridin-1-yl)-7-fluoro-2-(2-pyridinyl)-3-quinolinecarbonitrile] reads 437 nM.
The molecule `CC(C)c1c(-c2ccccn2)nc2cc(F)ccc2c1N1CC(C)(C)c2ncc(N3CCOCC3)cc21` [4-(3,3-dimethyl-6-(4-morpholinyl)-2,3-dihydro-1H-pyrrolo[3,2-b]pyridin-1-yl)-7-fluoro-3-(1-methylethyl)-2-(2-pyridinyl)quinoline] yielded a Ki of 5.87 nM.
In the case of `Cc1c(-c2ccccc2S(C)(=O)=O)nc2cc(F)ccc2c1N1CC(C)(C)c2ncc(N3CCOCC3)cc21` [4-(3,3-dimethyl-6-(4-morpholinyl)-2,3-dihydro-1H-pyrrolo[3,2-b]pyridin-1-yl)-7-fluoro-3-methyl-2-(2-(methylsulfonyl)phenyl)quinoline] it was 7.8 nM; in that of `Cc1ncccc1-c1nc2cc(F)ccc2c(N2CC(C)(C)c3ncc(N4CCOCC4)cc32)c1C` [4-(3,3-dimethyl-6-(4-morpholinyl)-2,3-dihydro-1H-pyrrolo[3,2-b]pyridin-1-yl)-7-fluoro-3-methyl-2-(2-methyl-3-pyridinyl)quinoline], 4.07 nM.
